Experimental data from PubChem BioAssay (NCI).
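Values below derive from 48-hour exposures of cells grown in 96-well plates, with endpoints linearly interpolated between the two concentrations bracketing the appropriate inhibition level. The concentration for 50% growth inhibition is given as GI50. TGI marks complete inhibition of growth.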

These compounds were tested on HOP-92 NSCLC (assay: inhibition of tumour cell growth, NCI panel, 48 h).
For `Nc1nc(Nc2cccnc2)sc1C(=O)c1ccccc1F`, the GI50 was 4.16 µM and the TGI was greater than 100 µM.
For `COc1ccc2[nH]c3c4[nH]c5ccc(OC)cc5c4c4c(c3c2c1)C(=O)NC4=O`, the GI50 was greater than 25 µM and the TGI was greater than 25 µM.
`CCOC(=O)c1c(N2CCOCC2)[nH]c(=O)c(C(c2c(Cl)cccc2Cl)c2c(O)c(C(=O)OCC)c(N3CCOCC3)[nH]c2=O)c1O` was tested, and the TGI was 8.56 µM.
For `CC/C=C\C[C@H](O)C/C=C1/C(=O)C=C[C@@H]1C/C=C\CCCC(=O)OC`, the GI50 was 3.22 µM and the TGI was 8.67 µM.

Each compound was assayed on MOLT-4 leukemia (assay: inhibition of tumour cell growth, NCI panel, 48 h).
With `Nc1nc(Nc2cccnc2)sc1C(=O)c1ccccc1F` the GI50 was 2.52 µM and the TGI was greater than 26.6 µM.
`COc1ccc2[nH]c3c4[nH]c5ccc(OC)cc5c4c4c(c3c2c1)C(=O)NC4=O` was tested, and the GI50 was greater than 10.3 µM and the TGI was greater than 25 µM.
With `CCOC(=O)c1c(N2CCOCC2)[nH]c(=O)c(C(c2c(Cl)cccc2Cl)c2c(O)c(C(=O)OCC)c(N3CCOCC3)[nH]c2=O)c1O` the TGI was 5.51 µM.
Work on `CC/C=C\C[C@H](O)C/C=C1/C(=O)C=C[C@@H]1C/C=C\CCCC(=O)OC` yielded a GI50 of 0.945 µM and a TGI of 4.8 µM.

The compounds below were run on LOX IMVI melanoma (assay: inhibition of tumour cell growth, NCI panel, 48 h).
With `Nc1nc(Nc2cccnc2)sc1C(=O)c1ccccc1F` the GI50 was 2.26 µM and the TGI was greater than 100 µM.
With `COc1ccc2[nH]c3c4[nH]c5ccc(OC)cc5c4c4c(c3c2c1)C(=O)NC4=O` the GI50 was greater than 13.1 µM and the TGI was greater than 25 µM.
Compound `CCOC(=O)c1c(N2CCOCC2)[nH]c(=O)c(C(c2c(Cl)cccc2Cl)c2c(O)c(C(=O)OCC)c(N3CCOCC3)[nH]c2=O)c1O` has a TGI of 9.08 µM.
Work on `CC/C=C\C[C@H](O)C/C=C1/C(=O)C=C[C@@H]1C/C=C\CCCC(=O)OC` yielded a GI50 of 0.237 µM and a TGI of 0.609 µM.

What follows are compounds tested on RPMI-8226 leukemia (assay: inhibition of tumour cell growth, NCI panel, 48 h).
In the case of `Nc1nc(Nc2cccnc2)sc1C(=O)c1ccccc1F`, the GI50 was 3.06 µM and the TGI was 7.35 µM.
Compound `COc1ccc2[nH]c3c4[nH]c5ccc(OC)cc5c4c4c(c3c2c1)C(=O)NC4=O` has a GI50 of 0.998 µM and a TGI greater than 25 µM.
For `CCOC(=O)c1c(N2CCOCC2)[nH]c(=O)c(C(c2c(Cl)cccc2Cl)c2c(O)c(C(=O)OCC)c(N3CCOCC3)[nH]c2=O)c1O`, the TGI was 5.27 µM.
`CC/C=C\C[C@H](O)C/C=C1/C(=O)C=C[C@@H]1C/C=C\CCCC(=O)OC` gave a GI50 of 1 µM and a TGI of 9.21 µM.

What follows are compounds tested on UACC-257 melanoma (assay: inhibition of tumour cell growth, NCI panel, 48 h).
Work on `Nc1nc(Nc2cccnc2)sc1C(=O)c1ccccc1F` yielded a GI50 of 4.29 µM and a TGI of 40.1 µM.
Compound `COc1ccc2[nH]c3c4[nH]c5ccc(OC)cc5c4c4c(c3c2c1)C(=O)NC4=O` has a GI50 greater than 25 µM and a TGI greater than 25 µM.
Compound `CCOC(=O)c1c(N2CCOCC2)[nH]c(=O)c(C(c2c(Cl)cccc2Cl)c2c(O)c(C(=O)OCC)c(N3CCOCC3)[nH]c2=O)c1O` has a TGI of 18.7 µM.
`CC/C=C\C[C@H](O)C/C=C1/C(=O)C=C[C@@H]1C/C=C\CCCC(=O)OC` was tested, and the GI50 was 2.36 µM and the TGI was 7.09 µM.

The compounds below were run on SW-620 colon (assay: inhibition of tumour cell growth, NCI panel, 48 h).
`Nc1nc(Nc2cccnc2)sc1C(=O)c1ccccc1F` showed a GI50 of 3.5 µM and a TGI greater than 42.6 µM.
For `COc1ccc2[nH]c3c4[nH]c5ccc(OC)cc5c4c4c(c3c2c1)C(=O)NC4=O`, the GI50 was greater than 25 µM and the TGI was greater than 25 µM.
`CCOC(=O)c1c(N2CCOCC2)[nH]c(=O)c(C(c2c(Cl)cccc2Cl)c2c(O)c(C(=O)OCC)c(N3CCOCC3)[nH]c2=O)c1O` was tested, and the TGI was 3.11 µM.
Compound `CC/C=C\C[C@H](O)C/C=C1/C(=O)C=C[C@@H]1C/C=C\CCCC(=O)OC` has a GI50 of 0.784 µM and a TGI of 11.3 µM.

Each compound was assayed on MALME-3M melanoma (assay: inhibition of tumour cell growth, NCI panel, 48 h).
`Nc1nc(Nc2cccnc2)sc1C(=O)c1ccccc1F` showed a GI50 of 3.29 µM and a TGI of 12.4 µM.
`COc1ccc2[nH]c3c4[nH]c5ccc(OC)cc5c4c4c(c3c2c1)C(=O)NC4=O` was tested, and the GI50 was 12.4 µM and the TGI was greater than 25 µM.
With `CCOC(=O)c1c(N2CCOCC2)[nH]c(=O)c(C(c2c(Cl)cccc2Cl)c2c(O)c(C(=O)OCC)c(N3CCOCC3)[nH]c2=O)c1O` the TGI was 7.91 µM.
In the case of `CC/C=C\C[C@H](O)C/C=C1/C(=O)C=C[C@@H]1C/C=C\CCCC(=O)OC`, the GI50 was 2.14 µM and the TGI was 6.24 µM.

What follows are compounds tested on T-47D breast (assay: inhibition of tumour cell growth, NCI panel, 48 h).
Work on `Nc1nc(Nc2cccnc2)sc1C(=O)c1ccccc1F` yielded a GI50 of 1.83 µM and a TGI of 11.9 µM.
